Results from PubChem BioAssay (NCI).
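Results reflect a 48-hour exposure of cells in 96-well plates to compound at five concentrations. Abbreviation: GI50, concentration required for 50% inhibition of growth. At the TGI there is no net growth.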

Legend:
Test in all cases: NCI anticancer screen, dose series, 48 h
[1] = tested on: SK-OV-3 ovarian
[2] = tested on: SR leukemia
[3] = tested on: M14 melanoma
[4] = tested on: HOP-92 NSCLC
[5] = tested on: UACC-62 melanoma
[6] = tested on: MDA-MB-435
[7] = tested on: SK-MEL-5 melanoma
[8] = tested on: RXF 393 renal
[9] = tested on: NCI-H226 lung
[10] = tested on: HCC-2998 colon
[11] = tested on: NCI-H23 lung
[12] = tested on: CCRF-CEM leukemia
[13] = tested on: A498 renal
[14] = tested on: OVCAR-5 ovarian
[15] = tested on: HL-60(TB) leukemia
[16] = tested on: T-47D breast
[17] = tested on: DU-145 prostate
[18] = tested on: EKVX NSCLC
[19] = tested on: RPMI-8226 leukemia
[20] = tested on: U251 CNS
[21] = tested on: MOLT-4 leukemia
[22] = tested on: HCT-116 colon
[23] = tested on: SK-MEL-28 melanoma
[24] = tested on: UACC-257 melanoma
[25] = tested on: OVCAR-3 ovarian
[26] = tested on: HT29 colon
[27] = tested on: COLO 205 colon
[28] = tested on: ACHN renal
[29] = tested on: IGROV1 ovarian
[30] = tested on: A549 NSCLC
[31] = tested on: LOX IMVI melanoma
[32] = tested on: NCI-H522 lung
[33] = tested on: KM12 colon
[34] = tested on: UO-31 renal
[35] = tested on: SF-268 CNS
[36] = tested on: BT-549 breast
[37] = tested on: HOP-62 NSCLC
[38] = tested on: PC-3 prostate
[39] = tested on: 786-0 renal
[40] = tested on: SN12C renal
[41] = tested on: NCI/ADR-RES ovarian
[42] = tested on: K-562 leukemia
[43] = tested on: OVCAR-4 ovarian
[44] = tested on: SK-MEL-2 melanoma
[45] = tested on: SF-295 CNS
[46] = tested on: SW-620 colon
[47] = tested on: HS 578T breast
[48] = tested on: SF-539 CNS
[49] = tested on: MDA-MB-231 breast
[50] = tested on: OVCAR-8 ovarian
[51] = tested on: HCT-15 colon
[52] = tested on: SNB-19 CNS
[53] = tested on: MCF7 breast
[54] = tested on: TK-10 renal
[55] = tested on: SNB-75 CNS
[56] = tested on: CAKI-1 renal
[57] = tested on: NCI-H460 lung

## CCN(CC)c1ccc(C2=NN(C(C)=O)C(c3cc(OC)c(OC)c(OC)c3)C2)cc1 (centres undefined)
[1]
  GI50: 410 nM
  TGI: 10.6 µM
[2]
  GI50: 70.8 nM
  TGI: 685 nM
[3]
  GI50: 418 nM
  TGI: 6.07 µM
[4]
  GI50: 1820 nM
  TGI: 20.3 µM
[5]
  GI50: 308 nM
  TGI: 13.6 µM
[6]
  GI50: 166 nM
  TGI: 363 nM
[7]
  GI50: 378 nM
  TGI: 5.05 µM
[8]
  GI50: 380 nM
  TGI: 2430 nM
[9]
  GI50: 1740 nM
  TGI: 11.8 µM
[10]
  GI50: 1050 nM
  TGI: 8.04 µM
[11]
  GI50: 870 nM
  TGI: 17.4 µM
[12]
  GI50: 304 nM
  TGI: 1420 nM
[13]
  GI50: 344 nM
  TGI: 4.13 µM
[14]
  GI50: 1450 nM
  TGI: 15.3 µM
[15]
  GI50: 209 nM
  TGI: 541 nM
[16]
  GI50: 511 nM
  TGI: 22.6 µM
[17]
  GI50: 399 nM
  TGI: 2280 nM
[18]
  GI50: 600 nM
  TGI: 11 µM
[19]
  GI50: 180 nM
  TGI: 579 nM
[20]
  GI50: 406 nM
  TGI: 11.5 µM
[21]
  GI50: 341 nM
  TGI: 3.57 µM
[22]
  GI50: 349 nM
  TGI: 13 µM
[23]
  GI50: 819 nM
  TGI: 19.1 µM
[24]
  GI50: 16 µM
  TGI: 39.8 µM
[25]
  GI50: 360 nM
  TGI: 11 µM
[26]
  GI50: 354 nM
  TGI: 1680 nM
[27]
  GI50: 307 nM
  TGI: 1160 nM
[28]
  GI50: 563 nM
  TGI: 23 µM
[29]
  GI50: 769 nM
  TGI: 33.6 µM
[30]
  GI50: 890 nM
  TGI: 22.5 µM
[31]
  GI50: 568 nM
  TGI: 16 µM
[32]
  GI50: 307 nM
  TGI: 2840 nM
[33]
  GI50: 349 nM
  TGI: 12.1 µM
[34]
  GI50: 1130 nM
  TGI: 21 µM
[35]
  GI50: 867 nM
  TGI: 20.9 µM
[36]
  GI50: 667 nM
  TGI: 7.9 µM
[37]
  GI50: 3.96 µM
  TGI: 24.2 µM
[38]
  GI50: 339 nM
  TGI: 12.2 µM
[39]
  GI50: 491 nM
  TGI: 13.3 µM
[40]
  GI50: 1150 nM
  TGI: 16.2 µM
[41]
  GI50: 247 nM
  TGI: 810 nM
[42]
  GI50: 689 nM
  TGI: > 100 µM
[43]
  GI50: 583 nM
  TGI: 29.2 µM
[44]
  GI50: 2370 nM
  TGI: 26.1 µM
[45]
  GI50: 258 nM
  TGI: 1460 nM
[46]
  GI50: 368 nM
  TGI: 14.4 µM
[47]
  GI50: 348 nM
  TGI: 26.6 µM
[48]
  GI50: 283 nM
  TGI: 1160 nM
[49]
  GI50: 1240 nM
  TGI: 6.9 µM
[50]
  GI50: 795 nM
  TGI: 11.9 µM
[51]
  GI50: 441 nM
  TGI: 12.1 µM
[52]
  GI50: 476 nM
  TGI: 13.3 µM
[53]
  GI50: 317 nM
  TGI: 11.4 µM
[54]
  GI50: 549 nM
  TGI: 17 µM
[55]
  GI50: 233 nM
  TGI: 3.59 µM
[56]
  GI50: 134 nM
  TGI: 21 µM
[57]
  GI50: 371 nM
  TGI: 4.71 µM
